These results are taken from PMC8386747, “Structure–activity relationship, in vitro and in vivo evaluation of novel dienyl sulphonyl fluorides as selective BuChE inhibitors for the treatment of Alzheimer's disease” (Journal of Enzyme Inhibition and Medicinal Chemistry, 2021).

The conditions of data set [1]: PAMPA-BBB, reported data from the reference; cited from earlier work. In general terms: In PAMPA a lipid-coated filter parts donor from acceptor wells.
Data set [2] can be described thus: in vitro. Particulars: PAMPA, pH 7.4, Pe×10^-6cm/s Exp. value.
Method: (§1) The 96-well UV plate (COSTAR) was manufactured by Corning Corporation, USA, and the commercially available drugs and test compounds were initially dissolved in DMSO at a concentration of 20 mg/mL. The solution was then diluted 200-fold with PBS (pH 7.4 ± 0.1)/EtOH (70/30, v/v) solution to a final concentration of 100 µg/mL.
(§2) The test compound was dissolved in DMSO at 5 mg/mL and diluted 200-fold with universal buffer (final concentration 25 µg/mL) to prepare the secondary stock solution; 200 µL of the secondary stock solution was added to the donor well; the acceptor plate was coated with 4 µL of 20 mg/mL dodecyl porcine polar brain, and then, 200 µL of pH 7.4 universal buffer was added to the acceptor well; the acceptor plate was carefully placed on the donor plate to form a “sandwich” and maintained for 18 h; the drug concentrations in the acceptor, donor and reference wells were determined using a UV microplate reader; the experiment was repeated three times, and the concentrations of the test compound in the donor and acceptor wells were measured using a UV plate spectral reader (PerkinElmer VICT or Nivo, Finland). In at least three independent experiments, each sample was analysed at three wavelengths in a four well.
The target in data set [3] is T1, BuChE from equine serum (Equus caballus, UniProt P81908).
T1 construct: BuChE from equine serum (C4290-1KU; Sigma); purchased Sigma C4290-1KU; host or cells: equine serum
T1 sequence (P81908 whole entry): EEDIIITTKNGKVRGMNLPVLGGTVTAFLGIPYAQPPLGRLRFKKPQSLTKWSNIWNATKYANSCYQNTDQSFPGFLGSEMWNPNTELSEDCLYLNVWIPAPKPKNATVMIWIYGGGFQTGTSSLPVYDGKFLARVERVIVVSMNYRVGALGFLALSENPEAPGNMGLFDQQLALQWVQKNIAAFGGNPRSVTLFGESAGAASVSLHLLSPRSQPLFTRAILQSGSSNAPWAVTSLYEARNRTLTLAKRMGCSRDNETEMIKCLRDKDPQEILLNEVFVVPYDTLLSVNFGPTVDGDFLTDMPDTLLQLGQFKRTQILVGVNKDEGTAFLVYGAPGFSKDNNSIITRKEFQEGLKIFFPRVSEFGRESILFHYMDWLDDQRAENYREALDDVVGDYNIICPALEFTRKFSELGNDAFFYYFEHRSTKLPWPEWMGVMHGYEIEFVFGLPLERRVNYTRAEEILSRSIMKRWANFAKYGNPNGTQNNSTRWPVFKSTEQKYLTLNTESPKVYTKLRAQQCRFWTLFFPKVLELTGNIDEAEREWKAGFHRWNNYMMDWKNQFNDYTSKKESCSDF
Nature of the data set: eqBuChE inhibition assay (Ellman's method). The data set is classed as biochemical. To be noted: read-out: BuChE % inhibition at 20 µM; BuChE from horse serum; 20 µM. Background: DTNB colorimetry detects thiols as they appear.
Method: (§3) According to the Ellman’s method, assays were performed on AChE from electric eel (C3389-500UN; Sigma) and BuChE from equine serum (C4290-1KU; Sigma). The experiment was performed in 48-well plates in a final volume of 500 µL. Each well contained 0.036 U/mL of eeAChE or eqBuChE, and 0.1 M pH 8 PBS. They were pre-incubated for 20 min at different compound concentrations at 37 °C. […] The DTNB produces the yellow anion 5-thio-2-nitrobenzoic acid along with the enzymatic degradation of ACh or BuCh. Changes in absorbance were measured at 410 nm after 20 min in a PerkinElmer VICTOR Nivo reader. The IC50 values were calculated graphically from inhibition curves (log inhibitor concentration vs percent of inhibition). A control experiment was performed under the same conditions without inhibitor and the blank contained buffer, DMSO, DTNB, and substrate.

For data set [4], the target named is T2, recombinant human AChE (hAChE) (Homo sapiens, UniProt P22303).
T2 construct: purchased Sigma C1682
T2 sequence (P22303 32-614): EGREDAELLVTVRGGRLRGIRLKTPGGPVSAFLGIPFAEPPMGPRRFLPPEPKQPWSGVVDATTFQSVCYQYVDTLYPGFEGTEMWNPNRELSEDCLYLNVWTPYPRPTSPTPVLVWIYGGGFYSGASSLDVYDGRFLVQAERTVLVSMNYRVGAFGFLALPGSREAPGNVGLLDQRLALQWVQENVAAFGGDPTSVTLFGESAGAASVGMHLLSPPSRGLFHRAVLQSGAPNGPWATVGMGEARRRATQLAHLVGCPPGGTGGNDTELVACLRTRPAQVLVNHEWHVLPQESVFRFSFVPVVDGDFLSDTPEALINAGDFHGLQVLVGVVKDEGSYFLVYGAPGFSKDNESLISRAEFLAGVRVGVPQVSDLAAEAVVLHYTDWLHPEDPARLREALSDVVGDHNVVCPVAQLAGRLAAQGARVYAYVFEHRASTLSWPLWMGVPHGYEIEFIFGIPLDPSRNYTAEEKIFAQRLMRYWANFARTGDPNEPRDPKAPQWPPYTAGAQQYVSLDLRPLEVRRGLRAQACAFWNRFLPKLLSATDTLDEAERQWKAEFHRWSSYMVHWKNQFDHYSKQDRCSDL
Put plainly: hAChE inhibition assay (Ellman's assay). In kind it is biochemical.
Method: The solution was diluted to 5 concentrations of 200, 100, 10, 1 and 0.1 µM in ethanol. Measurements were performed using 96-well plates. Buffer (40 µL), sample at a series of concentrations (10 µL), AChE (10 µL), and dibutyl succinate (20 µL) were successively added. The mixture was then incubated for 5 min at 37 °C. Then, 20 µL of ACh or BuCh were added and the reaction started. […] For the blank value, 10 µL of water was used instead of the inhibitor solution. The activity of the inhibitor was expressed as a logarithmic plot of the percentage of enzyme activity (with 100% as the reference) versus the concentration of the compound. IC50 values were determined graphically from inhibition curves (log inhibitor concentration versus percent inhibition).

Data set [5] concerns the target T3, AChE from electric eel (Electrophorus electricus, UniProt O42275).
T3 construct: assays were performed on AChE from electric eel (C3389-500UN; Sigma); purchased Sigma C3389-500UN
Put plainly: EeAChE inhibition assay (Ellman's method). In kind it is biochemical.
Method: as §3

Data set [6] has as its system Aβ1-42-induced cognitive dysfunction. Put plainly: Morris water maze in Aβ1-42-induced cognitive impairment model. The data set is classed as in vivo, mouse. To be noted: mice, Aβ1-42 10 µg icv; 15 mg/kg po Day 3 to Day 14. The method, then: All experiments were performed according to the National Institutes of Health Guide for the Care and Use of Laboratory Animals. The Measures for the Care and Treatment of Laboratory Animals were approved by the Animal Care and Use Committee of Anhui Medical University. Male ICR mice were used in the animal centre of Anhui Medical University (Hefei). Male mice (18‒24 g) aged 6‒8 weeks, 10 mice per cage, room temperature 22 ± 2 °C, light/dark (12:12 h) cycle. These animals had access to food and water prior to testing. The ambient temperature and relative humidity (50%) of the room remained consistent throughout all tests. Behavioural experiments: MWM was used for cognitive function, and mice were randomly selected for behavioural experiments. Each experimental group consisted of 8‒10 mice/dose. The experimental time was from 08:00 to 14:00, and the mice were sacrificed by cervical dislocation immediately after the end of the experiment. […]. Aβ1-42 aggregation was induced by dissolving the Aβ1-42 peptide in DMSO as a stock solution of 5 mM and incubating it in saline at a final concentration of 2 mg/mL for 24 h at 37 °C.
The behavioural study was a water maze experimental behavioural study on days 10 − 15, including a 5-day learning and memory training, and a test assessment on day 6. MWM consists of a water-filled pool (grey, circular, 1.20 m in diameter, 0.60 m in height) and a platform with adjustable height and movable position. The pool was divided into four equal quadrants (compass position: NE, NW, SE, SW) using a computerised video tracking system (SMART, version 3.0; Panlab, Spain). The pool was filled with water, generally about 48 cm below the edge, to prevent animals from jumping out, and the water temperature was maintained at 22 ± 1 °C. […] The time to reach the hidden platform (i.e. escape latency), the distance to reach the hidden platform, the distance in the target (NW) area, and the average speed were recorded. […]

For data set [7] the following is noted: PAMPA-BBB class.
Method: as §1, §2
Data set [8] deals with BuChE. Set-up: method as in PMID 31136894. Particulars: cited from earlier work.
The subject of data set [9] is GSK-3β. On the set-up: method as in PMID 28749667, PMID 26696252. To be noted: read-out: GSK-3μ IC50; cited from earlier work.
Data set [10] deals with BACE-1. On the set-up: method as in PMID 28749667, PMID 26696252. To be noted: cited from earlier work.

T3 sequence (O42275 24-633): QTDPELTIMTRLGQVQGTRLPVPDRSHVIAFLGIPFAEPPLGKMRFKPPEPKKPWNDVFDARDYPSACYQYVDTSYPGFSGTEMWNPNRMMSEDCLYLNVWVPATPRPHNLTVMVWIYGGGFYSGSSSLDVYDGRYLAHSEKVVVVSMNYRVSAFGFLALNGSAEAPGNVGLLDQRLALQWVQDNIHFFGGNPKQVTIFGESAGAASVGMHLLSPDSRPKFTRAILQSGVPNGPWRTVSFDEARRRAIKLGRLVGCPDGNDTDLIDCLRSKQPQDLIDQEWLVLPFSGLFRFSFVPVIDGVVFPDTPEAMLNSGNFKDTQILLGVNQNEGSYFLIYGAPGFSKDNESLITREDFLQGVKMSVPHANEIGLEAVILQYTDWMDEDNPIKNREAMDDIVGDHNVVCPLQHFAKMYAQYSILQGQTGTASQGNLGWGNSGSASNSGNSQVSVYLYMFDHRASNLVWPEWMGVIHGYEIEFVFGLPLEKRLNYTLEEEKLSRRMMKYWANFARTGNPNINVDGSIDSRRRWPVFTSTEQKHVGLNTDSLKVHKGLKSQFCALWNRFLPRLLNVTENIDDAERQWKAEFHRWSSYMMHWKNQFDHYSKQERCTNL

Consider `Clc1cccc(Cl)c1N=C1NCCN1` [Clonidine, reference compound], for which the “Pe×10^-6cm/s BibL. value” in data set [1] was 5.3 ×10^-6cm/s. Besides, the Papp – broadly, the rate of passage across a membrane or cell layer, normalised by area and donor concentration – in data set [2] came to 7.85 ×10⁻⁶ cm/s.
With `O=S(=O)(F)C(Br)=CC=Cc1ccc(Cl)nc1` [Compound A18], the inhibition – broadly, the change of the read-out against control, counted positive when it falls – at 20 µM in data set [3] turned out to be 42.8 ± 3.6%; in [4] it was 14.3 ± 0.9%. Also, the midpoint of inhibition in data set [5], the IC50, lay at 79 ± 2 nM.
On to `COc1cc2c(cc1OC)C(=O)C(CC1CCN(Cc3ccccc3)CC1)C2` (stereo not drawn) [Donepezil, donepezil, reference compound], for which the “effect on Aβ1-42-induced cognitive dysfunction (MWM)” value in data set [6] is “significantly improved”.
Regarding `CN1C(C(=O)Nc2ccccn2)=C(O)c2ccccc2S1(=O)=O` [Piroxicam, reference compound], the “Pe×10^-6cm/s BibL. value” in [1] is given as 9.3 ×10^-6cm/s. Further, in data set [2] (PAMPA-BBB, three independent experiments), the Papp was 9.87 ×10⁻⁶ cm/s. Also, the BBB penetration entry in data set [7] is listed as “CNS+ (“CNS +” (high BBB permeation): Pe (× 10^‒6 cm/s) >4.0)”.
For the molecule `O=C1c2cc(NS(=O)(=O)c3ccccc3OC(F)(F)F)ccc2NC2C3Nc4ccccc4C3CCN12` (stereo not drawn) [Rutaecarpine-6n], in data set [8], the IC50 (usually the concentration that inhibits the measured activity by half) is 3600 nM.
As to `COc1cc(/C=C/C(O)=C/C(=O)/C=C/c2ccc(OCc3ccccc3)cc2)ccc1O` [curcumin derivative], the IC50 in [9] was 900 nM; in [10] it was 970 nM.
